In ChEMBL document CHEMBL1149616, “Antiproliferative, low-calcemic, fluorinated sulfone analogs of 1alpha,25-dihydroxyvitamin D3: chemical synthesis and biological evaluation” (Bioorg Med Chem, 2007):
Activity calls are given as the source filed them. No cut-off for these calls is given here.

Key:
Keratinocyte [1] = experiment: Antiproliferative activity against mouse keratinocytes at 3 to 7 nM; format: functional, cell-based
Keratinocyte [2] = experiment: Antiproliferative activity against mouse keratinocytes at 7 nM; format: functional, cell-based

| Structure (SMILES) | Activity (Keratinocyte [1]) | Activity (Keratinocyte [2]) |
| --- | --- | --- |
| C=C1/C(=C\C=C2/CCC[C@]3(C)[C@@H]([C@@H](C)OCCCS(=O)(=O)C(F)(F)F)CC[C@@H]23)C[C@@H](O)C[C@@H]1O | Active | – |
| C=C1/C(=C\C=C2/CCC[C@]3(C)C([C@H](C)CCCS(=O)(=O)C(F)(F)F)=CC[C@@H]23)C[C@@H](O)C[C@@H]1O | – | Active |
